Measured values taken from patent publication US20250304717A1, “CAMPTOTHECIN DERIVATIVE AND LIGAND-DRUG CONJUGATE” (HAINAN SIMCERE ZAIMING PHARMACEUTICAL CO., LTD., priority 2022, published 2025).

tested on: SKBR3 cells; experiment: Anti-tumor cell proliferation activity of compound of formula (D-H), Cell-Titer Glo, SKBR3; format: cell-based, human; settings: Homo sapiens, SK-BR-3, 120 h, read-out: SKBR3 Antiproliferative activity IC50 (nM), SKBR3 cells, 5 days
Procedure: (§1) Cell culture: HCT116 cells and SKBR3 cells were cultured with a McCoy's 5a medium containing 10% fetal bovine serum+1% penicillin-streptomycin at 37° C. with 5% CO2, and OVCAR3 cells were cultured with a 1640 medium containing 20% fetal bovine serum+2 μg/mL bovine insulin+1% penicillin-streptomycin at 37° C. with 5% CO2. Cells at logarithmic growth phase were available for the experiment.
(§2) Cell proliferation activity test: The Cell-Titer Glo reagent was used to test the compound for inhibitory activity on proliferation of the three cell strains HCT116, SKBR3, and OVCAR3. HCT116 cells (1500 per well), SKBR3 cells (3000 per well), and OVCAR3 cells (5000 per well) were seeded on 96-well plates and incubated at 37° C. with 5% CO2 for 24 h. After a solution of the compound to be detected was added (the compound was dissolved in DMSO so that the compound concentration was 1 mM, then the compound was diluted to […] in DMSO at 9 concentrations in a 3-fold dilution, and 10 μL of the prepared compound solution was transferred to the 96-well plate so that the final concentration was 0-300 nM), the mixture was incubated at 37° C. with 5% CO2. HCT116 cells were cultured for 3 days, and SKBR3 cells and OVCAR3 cells were cultured for 5 days. The Cell-Titer Glo reagent was added and the cell activity was measured.
(§3) A negative control group and a positive control group were respectively used as Bottom and Top. The negative control group was not added with cells, only added with the culture medium in the same volume, and other operations were consistent with those of the experimental group. The positive control group was not added with the test drug, and other operations were consistent with those of the experimental group.
(§4) Data analysis: % Inhibition was calculated, and compound IC50 was fitted.
(§5) % Inhibition=1-100%×(Signal−Bottom)/(Top−Bottom).
(§6) Signal referred to the signal value of the experimental group, Bottom referred to the average signal value of the negative control group, and Top referred to the average signal value of the positive control group.

Row | Compound | IC50
1 | CC[C@@]1(O)C(=O)OCc2c1cc1n(c2=O)Cc2c-1nc1cc3c(cc1c2CNC(=O)CO)OCCO3 [Compound 1, (S)-N-((8-ethyl-8-hydroxy-9,12-dioxo-2,3,8,9,12,14-hexahydro-11H-[1,4]dioxino[2,3-g]pyrano[3′,4′:6,7]indolizino[1,2-b]quinolin-15-yl)methyl)-2-hydroxyacetamide] | 8.5 nM
2 | CC[C@@]1(O)C(=O)OCc2c1cc1n(c2=O)Cc2c-1nc1cc(F)c(Cl)cc1c2CNC(=O)CO [Compound 3, (S)-N-((9-chloro-4-ethyl-8-fluoro-4-hydroxy-3,14-dioxo-3,4,12,14-tetrahydro-1H-pyrano[3′,4′:6,7]indolizino[1,2-b]quinolin-11-yl)methyl)-2-hydroxyacetamide] | 3.6 nM
3 | CC[C@@]1(O)C(=O)OCc2c1cc1n(c2=O)Cc2c-1nc1cc(F)c(Br)cc1c2CNC(=O)CO [Compound 5, (S)-N-((9-bromo-4-ethyl-8-fluoro-4-hydroxy-3,14-dioxo-3,4,12,14-tetrahydro-1H-pyrano[3′,4′:6,7]indolizino[1,2-b]quinolin-11-yl)methyl)-2-hydroxyacetamide] | 3.3 nM

tested on: HCT116 cells; experiment: Anti-tumor cell proliferation activity of compound of formula (D-H), Cell-Titer Glo, HCT116; format: cell-based; settings: Homo sapiens, HCT-116, 72 h, read-out: HCT116 Antiproliferative activity IC50 (nM), HCT116 cells, 3 days
Procedure: as §1, §2, §3, §4, §5, §6

Row | Compound | IC50
4 | CC[C@@]1(O)C(=O)OCc2c1cc1n(c2=O)Cc2c-1nc1ccc3c(c1c2CNC(=O)CO)CCC3 [Compound 7, (S)-N-((8-ethyl-8-hydroxy-9,12-dioxo-2,3,8,9,12,14-hexahydro-1H,11H-cyclopenta[f]pyrano[3′,4′:6,7]indolizino[1,2-b]quinolin-15-yl)methyl)-2-hydroxyacetamide] | 10 to 100 nM
5 | CC[C@@]1(O)C(=O)OCc2c1cc1n(c2=O)Cc2c-1nc1cnc(Br)cc1c2CNC(=O)CO [Compound 15, (S)-N-((9-bromo-4-ethyl-4-hydroxy-3,14-dioxo-3,4,12,14-tetrahydro-1H-pyrano[3′,4′:6,7]indolizino[1,2-b][1,7]naphthyridin-11-yl)methyl)-2-hydroxyacetamide] | 10 to 100 nM
6 | [2H]C1([2H])Oc2cc3nc4c(c(CNC(=O)C(O)C5CC5)c3cc2O1)Cn1c-4cc2c(c1=O)COC(=O)[C@]2(O)CC (stereo partly drawn) [Compound 19, 2-cyclopropyl-N—(((S)-7-ethyl-7-hydroxy-8,11-dioxo-7,8,11,13-tetrahydro-10H-[1,3]dioxolo[4,5-g]pyrano[3′,4′:6,7]indolizino[1,2-b]quinolin-14-yl-2,2-d2)methyl)-2-hydroxyacetamide] | < 10 nM
7 | CC[C@@]1(O)C(=O)OCc2c1cc1n(c2=O)Cc2c-1nc1cc(Cl)c3occc3c1c2CNC(=O)CO [Compound 27, (S)-N-((4-chloro-8-ethyl-8-hydroxy-9,12-dioxo-8,9,12,14-tetrahydro-11H-furo[3,2-f]pyrano[3′,4′:6,7]indolizino[1,2-b]quinolin-15-yl)methyl)-2-hydroxyacetamide] | 10 to 100 nM
8 | CC[C@@]1(O)C(=O)OCc2c1cc1n(c2=O)Cc2c-1nc1cc(Cl)c3occc3c1c2CNC(=O)C(O)C1CC1 (stereo partly drawn) [Compound 28, N—(((S)-4-chloro-8-ethyl-8-hydroxy-9,12-dioxo-8,9,12,14-tetrahydro-11H-furo[3,2-f]pyrano[3′,4′:6,7]indolizino[1,2-b]quinolin-15-yl)methyl)-2-cyclopropyl-2-hydroxyacetamide] | < 10 nM
9 | CC[C@@]1(O)C(=O)OCc2c1cc1n(c2=O)Cc2c-1nc1cc3c(c([N+](=O)[O-])c1c2CNC(=O)C(O)C1CC1)OCO3 (stereo partly drawn) [Compound 29, 2-cyclopropyl-N—(((S)-7-ethyl-7-hydroxy-15-nitro-8,11-dioxo-7,8,11,13-tetrahydro-10H-[1,3]dioxolo[4,5-g]pyrano[3′,4′:6,7]indolizino[1,2-b]quinolin-14-yl)methyl)-2-hydroxyacetamide] | 10 to 100 nM

same assay, conditions: Homo sapiens, HCT-116, 72 h; HCT116 cells, 3 days; read-out: HCT116 Antiproliferative activity IC50

Row | Compound | IC50
10 | CC[C@@]1(O)C(=O)OCc2c1cc1n(c2=O)Cc2c-1nc1cc3c(c(F)c1c2CNC(=O)[C@@H](O)C1CC1)OCO3 [Compound 35-P1, 2-cyclopropyl-N-(((S)-7-ethyl-15-fluoro-7-hydroxy-8,11-dioxo-7,8,11,13-tetrahydro-10H-[1,3]dioxolo[4,5-g]pyrano[3′,4′:6,7]indolizino[1,2-b]quinolin-14-yl)methyl)-2-hydroxyacetamide] | < 10 nM
